Reference: publication PMC5897774, “Mitotic spindle association of TACC3 requires Aurora‐A‐dependent stabilization of a cryptic α‐helix” (The EMBO Journal, 2018)
Substitutions are numbered along the chain they refer to. Where two headings read alike, the source gives them in different places. Residues, ends and D or L forms follow the SMILES beside them. No end group written: not given here.

Tests used:
CHC 1–574 = biological target: T1, CHC 1–574 (Homo sapiens, UniProt Q00610); test: FP binding assay, CHC 1–574; conditions: 50 nM FAM peptide, pH 7.5, 25°C, mutant vs WT phospho-TACC3^CID
T1 construct: GST (cleaved yes); made in house
Procedure: For CHC‐TACC3 FP assays, CHC proteins were serially diluted in FP buffer (20 mM HEPES–NaOH pH 7.5, 200 mM NaCl, 5 mM DTT). FAM‐labelled TACC3 peptide was added to a final concentration of 50 nM and incubated for 30 min at room temperature to allow binding to reach equilibrium. Fluorescence polarization measurements were made using a Victor X5 plate reader (Perkin Elmer) at 25°C with excitation at 490 nm and emission at 535 nm. Data analysis was performed as described above.

Aurora‐A [1] = biological target: T2, Aurora‐A (Homo sapiens, UniProt O14965, C290A/C393A); parameters: method as in Burgess et al, 2015; conditions: ref Burgess et al, 2015, cited from earlier work
T2 construct: pET30TEV Aurora‐A 122–403 C290A, C393A; made in house
T2 sequence (O14965 122-403 C290A/C393A): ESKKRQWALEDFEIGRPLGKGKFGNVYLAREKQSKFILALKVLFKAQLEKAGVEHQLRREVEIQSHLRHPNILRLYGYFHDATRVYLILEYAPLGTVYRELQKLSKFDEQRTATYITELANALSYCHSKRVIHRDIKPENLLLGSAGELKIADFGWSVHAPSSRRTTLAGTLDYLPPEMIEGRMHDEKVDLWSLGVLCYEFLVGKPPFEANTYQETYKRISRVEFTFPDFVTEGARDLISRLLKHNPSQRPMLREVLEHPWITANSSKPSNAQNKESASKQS

[2] = tested on: Aurora‐A KD (substrate: Aurora‐A D274N); test: Substrate phosphorylation of kinase‐dead Aurora‐A D274N by Aurora‐A KD (Western blot αphospho‐T288); assay type: biochemical, human; conditions: Aurora‐A D274N as substrate, 1 h, room temperature
Source text: (§1) Figure 2 TACC3 523–534 forms a docking interaction on the N‐lobe of Aurora‐A • Magnified view of the site 1 interaction. • Schematic showing the key features of the TACC3/Aurora‐A interface. • FP assays of binding between site 1 of TACC3 and Aurora‐A. The sequence of TACC3 present in the complex crystal structure is shown (top) with the residues of the site 1 FP peptide coloured orange and mutated residues identified by coloured circles corresponding to the curves shown in the FP assay (below). Data represent mean of three experiments ± SD. […] Data represent mean of three experiments ± SD. […] Reactions were analysed by SDS–PAGE (above) and Western blotting with an αphospho‐T288 Aurora‐A antibody (below). […] They are listed as printed.
(§2) Autophosphorylation assays were performed as for radioactive ^32P‐ATP reactions using Aurora‐A 122–403 co‐expressed with lambda phosphatase for 1 h at room temperature with His‐Aurora‐A D274N as a substrate in replace of MBP. Reactions were resolved by SDS–PAGE and subject to Western blotting using an α‐phospho‐T288 Aurora‐A antibody (CST 2914, 1:2,000) as per the manufacturer's recommendation.

Aurora‐A R151A = biological target: T3, Aurora‐A R151A (Homo sapiens, UniProt O14965, C290A/C393A/R151A); test: Radioactive 32P‐ATP kinase assay, MBP substrate, Aurora‐A R151A; assay type: biochemical; conditions: 0.625 μM Aurora‐A R151A, 5 μM TACC3^N‐ACID, 0.25 mg/ml MBP, 10 min, scintillation counting, duplicate
T3 construct: pET30TEV Aurora‐A 122–403 C290A, C393A were produced in a similar manner; made in house
T3 sequence (O14965 122-403 R151A/C290A/C393A): T2 sequence (O14965 122-403 C290A/C393A) with R30A
Procedure: Figure EV2 Biochemical and structural analysis of the Aurora‐A/TACC3 complex • FP assay between FAM‐TACC3 519–570 and Aurora‐A. Reactions were performed in triplicate. Error bars represent standard deviation. […] Error bars represent standard deviation. […] This peptide was based on the location of a sulphate ion, originating from the crystallization solution, at the interface of the Aurora‐A/TACC3 interface in the crystal structure, close to TACC3 T534. […] Myelin basic protein (MBP) was used as a generic kinase substrate. Incorporation of radioisotope was measured by scintillation counting. Reactions were performed in duplicate. Error bars represent standard error. Assays were compared to the WT TACC3^N‐ACIDH6c reaction by one‐way ANOVA with Dunnett's post hoc test. *P < 0.1, **P < 0.01 and ****P < 0.0001. • Multiple sequence alignment of TACC3 (above) and Aurora‐A (below) orthologs spanning the interaction binding interface. Key binding residues are boxed in red. The TACC3 phosphorylation sites, S552 and S558, are boxed in blue. The TACC3 LL motif required for binding to CHC is boxed in green. […]
Radioactive ^32P‐ATP kinase assays were performed as described previously (Burgess et al, 2015). […] Samples were spotted onto P81 Whatman paper, washed extensively with 0.2% (v/v) orthophosphoric acid and incorporation of radioisotope measured by scintillation counting.

Aurora‐A [3] = biological target: T2, Aurora‐A; test: Radioactive 32P‐ATP kinase assay, MBP substrate; assay type: biochemical; conditions: 0.625 μM phosphorylated Aurora‐A, 5 μM TACC3^N‐ACID, 0.25 mg/ml MBP, 10 min, scintillation counting, duplicate
Procedure: Figure EV2 Biochemical and structural analysis of the Aurora‐A/TACC3 complex • FP assay between FAM‐TACC3 519–570 and Aurora‐A. Reactions were performed in triplicate. Error bars represent standard deviation. […] Error bars represent standard deviation. […] This peptide was based on the location of a sulphate ion, originating from the crystallization solution, at the interface of the Aurora‐A/TACC3 interface in the crystal structure, close to TACC3 T534. […] Myelin basic protein (MBP) was used as a generic kinase substrate. Incorporation of radioisotope was measured by scintillation counting. Reactions were performed in duplicate. Error bars represent standard error. Assays were compared to the WT TACC3^N‐ACIDH6c reaction by one‐way ANOVA with Dunnett's post hoc test. […], **P < 0.01 and ****P < 0.0001. • Multiple sequence alignment of TACC3 (above) and Aurora‐A (below) orthologs spanning the interaction binding interface. Key binding residues are boxed in red. The TACC3 phosphorylation sites, S552 and S558, are boxed in blue. The TACC3 LL motif required for binding to CHC is boxed in green. The TACC3 α‐helix produced on binding to CHC is identified by a black line. TEXT PRINTED IN THE PICTURE: (A) TACC3 519-570: 3.0 ± 0.2 μM | (B) WT: 20 ± 1 μM | (B) R526A: 49 ± 2 μM | (B) phospho-T534: 14 ± 1 μM
Radioactive ^32P‐ATP kinase assays were performed as described previously (Burgess et al, 2015). In brief, 0.625 μM Aurora‐A^M3KD WT or selected mutant was incubated with 0.25 mg/ml MBP alone and in the presence of 5 μM TACC3^N‐ACID WT or mutant for 10 min. Reactions were terminated by the addition of 2% (v/v) orthophosphoric acid. Samples were spotted onto P81 Whatman paper, washed extensively with 0.2% (v/v) orthophosphoric acid and incorporation of radioisotope measured by scintillation counting.

[4] = tested on: unphosphorylated Aurora‐A KD; test: Autophosphorylation assay of unphosphorylated Aurora‐A KD (Western blot αphospho‐T288); assay type: biochemical, human; conditions: unphosphorylated Aurora‐A 122–403, 1 h, room temperature
Source text: as §1, §2

Aurora‐A [5] = conditions: whether T288 is phosphorylated or not, ref Bayliss et al, 2003, Eyers et al, Dodson & Bayliss, 2012; cited from earlier work
Source text: The activity of Aurora‐A is controlled through phosphorylation of its activation loop on T288 (Bayliss et al, 2003; Eyers et al, 2003). Like many of its other binding partners, such as TPX2, I‐2, HEF1, and N‐Myc, TACC3 is an Aurora‐A activator (Nikonova et al, 2013; Richards et al, 2016). However, only in the case of TPX2 has the mechanism of activation, and how this synergizes with phosphorylation of T288, been resolved (Bayliss et al, 2003; Eyers et al, 2003; Dodson & Bayliss, 2012).

T1 sequence (Q00610 1-574): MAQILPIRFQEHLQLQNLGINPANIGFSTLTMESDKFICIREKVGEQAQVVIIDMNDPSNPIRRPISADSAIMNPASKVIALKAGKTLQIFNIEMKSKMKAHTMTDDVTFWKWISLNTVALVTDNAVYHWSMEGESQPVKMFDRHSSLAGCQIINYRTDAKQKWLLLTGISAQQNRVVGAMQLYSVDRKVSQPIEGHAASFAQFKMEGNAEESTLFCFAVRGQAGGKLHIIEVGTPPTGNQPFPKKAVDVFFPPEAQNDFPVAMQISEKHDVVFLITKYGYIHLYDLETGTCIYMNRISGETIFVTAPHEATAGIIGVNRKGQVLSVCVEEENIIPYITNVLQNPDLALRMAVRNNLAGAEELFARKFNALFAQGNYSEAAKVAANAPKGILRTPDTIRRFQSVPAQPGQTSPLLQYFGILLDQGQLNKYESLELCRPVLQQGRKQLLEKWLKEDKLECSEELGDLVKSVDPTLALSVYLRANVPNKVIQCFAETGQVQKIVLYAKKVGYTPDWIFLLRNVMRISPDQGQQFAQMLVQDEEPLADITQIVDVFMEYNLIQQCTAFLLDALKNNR

Compound: CC(C)C[C@H](NC(=O)[C@H](C)NC(=O)[C@H](CO)NC(=O)[C@H](CCC(=O)O)NC(=O)[C@H](CCCCN)NC(=O)[C@H](Cc1ccccc1)NC(=O)c1ccc2c(c1)C(=O)OC21c2ccc(O)cc2Oc2cc(O)ccc21)C(=O)N[C@@H](C)C(=O)N[C@@H](C)C(=O)N[C@@H](CCC(N)=O)C(=O)N[C@@H](COP(=O)(O)O)C(=O)N[C@@H](CC(C)C)C(=O)N[C@@H](Cc1ccc(O)cc1)C(=O)N[C@@H](CC(C)C)C(=O)N[C@@H](CCCCN)C(=O)N[C@@H](Cc1ccccc1)C(=O)N[C@@H](CC(=O)O)C(=O)N1CCC[C@H]1C(=O)N[C@@H](CC(C)C)C(=O)N[C@@H](CC(C)C)C(=O)N[C@@H](CCCNC(=N)N)C(=O)N[C@@H](CC(=O)O)C(=O)N[C@@H](CO)C(=O)O [R555A, K556A] (HELM PEPTIDE1{[O=C1OC2(c3ccc(O)cc3Oc3cc(O)ccc32)c2ccc(C(=O)[*:2])cc21].F.K.E.S.A.L.A.A.Q.[O=C([C@H](COP(=O)(O)O)N[*:1])[*:2]].L.Y.L.K.F.D.P.L.L.R.D.S}$$$$V2.0; N-terminus and C-terminus assumed)
- factor of reduction of affinity for CHC 1–574 (CHC 1–574): 4–5 factor

Compound: TACC3^N‐ACID: N-terminal fragment of the Aurora-A and CHC interaction domain of TACC3, aa519–563 (ELKEESFRDPAEVLGTGAEVDYLEQFGTSSFKESALRKQSLYLKF; not fully specified)
- Kd (Aurora‐A [1]; microscale thermophoresis and NMR, read-out: K d measured by MST and NMR): 6 to 8 µM
- Kd (Aurora‐A [1]; previous data, effect of F525A mutation, read-out: K d of the interaction): 5.7 µM
- substrate phosphorylation on T288 (Aurora‐A D274N) [2]: stimulated
- stimulation of Aurora‐A R151A activity by TACC3 (Aurora‐A R151A): reduced stimulation
- stimulation of Aurora‐A activity (Aurora‐A [3]): eightfold
- Aurora‐A autophosphorylation on T288 [4]: stimulated

Compound: TPX2 1–43: amino acids 1–43 of TPX2 (MSQVKSSYSYDAPSDFINFSSLDDEGDTQNIDSWFEEKANLEN; UniProt Q9ULW0 1-43, looked up, fragment)
- stimulation of Aurora‐A activity (Aurora‐A [5]): stimulate Aurora‐A activity
